From US20120202876A1, “METHODS OF TREATING DISEASES WITH PROANTHOCYANIDIN OLIGOMERS SUCH AS CROFELEMER” (NAPO PHARMACEUTICALS, INC., priority 2009, published 2012)

Target: T1, human CFTR (Homo sapiens, UniProt P13569)
T1 construct: expressed in transfected cells
Experiment: Apical membrane Cl− current in CFTR-expressing FRT cells
Format: cell-based
Conditions: for inhibition of CFTR after crofelemer pre-treatment: 50 μM crofelemer added first; for IC50 in absence versus presence of crofelemer: 50 μM crofelemer pre-added
Method: CFTR Cl^− current was measured in CFTR-expressing FRT cells in which the basolateral membrane was permeabilized by amphotericin B and a transepithelial Cl^− gradient was applied. Under these conditions, the measured current provides a direct quantitative measure of CFTR Cl^− conductance.
Measurements were done to investigate whether the Crofelemer inhibition potency depended on the CFTR activation mechanism. […] The reversibility of crofelemer inhibition of CFTR was investigated, since washout during secretory diarrhea is a concern in the use of a non-absorbable antisecretory agent. […] Following extensive washing, residual CFTR inhibition was determined from the current after re-stimulation by CPT-cAMP.
Comparisons of CFTR inhibition in the absence and presence of pre-added crofelemer tested the possibility that the site of action of crofelemer on CFTR might overlap with that of the small-molecule thiazolidinone and glycine hydrazide CFTR inhibitors.
FRT cells expressing human TMEM16A (cDNA provided by Dr. Luis Galietta, Gaslini Institute, Genoa, Italy) were generated similarly. FRT cells were cultured in F-12 Modified Coon's Medium (Sigma) supplemented with 10% fetal bovine serum (Hyclone), 2 mM glutamine, 100 units/ml penicillin, 100 μg/ml streptomycin, 350 μg/ml hygromycin and 500 μg/ml geneticin. […] T84 cells were cultured in DMEM/Ham's F-12 (1:1) medium containing 10% FBS, 100 units/ml penicillin and 100 μg/ml streptomycin.
FRT cells (stably expressing CFTR or TMEM16A) were cultured on Snapwell filters until confluence (transepithelial resistance >500 ohm.cm). Short-circuit current was measured in Ussing chambers (Vertical diffusion chamber; Costar) with Ringer's solution bathing the basolateral surface and half-Ringer's bathing the apical surface. Ringer's solution contained: 130 mM NaCl, 2.7 mM KCl, 1.5 mM KH2PO4, 1 mM CaCl2, 0.5 mM MgCl2, 10 mM Na-HEPES, 10 mM glucose, pH 7.3. Half-Ringer's solution was the same, except that 65 mM NaCl was replaced with Na gluconate, and CaCl2 was increased to 2 mM. […] Chambers were bubbled continuously with air. For T84 cells and bronchial epithelial cells, cells were bathed in symmetrical HCO3—buffered solution containing (in mM): 120 NaCl, 5 KCl, 1 MgCl2, 1 CaCl2, 10 D-glucose, 5 HEPES, and 25 NaHCO3 (pH 7.4), and aerated with 5% CO2 at 37° C. For the measurement of apical K+ conductance in T84 cells, NaHCO3 and NaCl were replaced with Na gluconate, and Na gluconate in basolateral solution was replaced with K gluconate and bubbled with air. The basolateral membrane was permeabilized with 20 μM amphotericin B. Short-circuit current was measured using a DVC-1000 voltage-clamp apparatus (World Precision Instruments).

T1 sequence (P13569 whole entry): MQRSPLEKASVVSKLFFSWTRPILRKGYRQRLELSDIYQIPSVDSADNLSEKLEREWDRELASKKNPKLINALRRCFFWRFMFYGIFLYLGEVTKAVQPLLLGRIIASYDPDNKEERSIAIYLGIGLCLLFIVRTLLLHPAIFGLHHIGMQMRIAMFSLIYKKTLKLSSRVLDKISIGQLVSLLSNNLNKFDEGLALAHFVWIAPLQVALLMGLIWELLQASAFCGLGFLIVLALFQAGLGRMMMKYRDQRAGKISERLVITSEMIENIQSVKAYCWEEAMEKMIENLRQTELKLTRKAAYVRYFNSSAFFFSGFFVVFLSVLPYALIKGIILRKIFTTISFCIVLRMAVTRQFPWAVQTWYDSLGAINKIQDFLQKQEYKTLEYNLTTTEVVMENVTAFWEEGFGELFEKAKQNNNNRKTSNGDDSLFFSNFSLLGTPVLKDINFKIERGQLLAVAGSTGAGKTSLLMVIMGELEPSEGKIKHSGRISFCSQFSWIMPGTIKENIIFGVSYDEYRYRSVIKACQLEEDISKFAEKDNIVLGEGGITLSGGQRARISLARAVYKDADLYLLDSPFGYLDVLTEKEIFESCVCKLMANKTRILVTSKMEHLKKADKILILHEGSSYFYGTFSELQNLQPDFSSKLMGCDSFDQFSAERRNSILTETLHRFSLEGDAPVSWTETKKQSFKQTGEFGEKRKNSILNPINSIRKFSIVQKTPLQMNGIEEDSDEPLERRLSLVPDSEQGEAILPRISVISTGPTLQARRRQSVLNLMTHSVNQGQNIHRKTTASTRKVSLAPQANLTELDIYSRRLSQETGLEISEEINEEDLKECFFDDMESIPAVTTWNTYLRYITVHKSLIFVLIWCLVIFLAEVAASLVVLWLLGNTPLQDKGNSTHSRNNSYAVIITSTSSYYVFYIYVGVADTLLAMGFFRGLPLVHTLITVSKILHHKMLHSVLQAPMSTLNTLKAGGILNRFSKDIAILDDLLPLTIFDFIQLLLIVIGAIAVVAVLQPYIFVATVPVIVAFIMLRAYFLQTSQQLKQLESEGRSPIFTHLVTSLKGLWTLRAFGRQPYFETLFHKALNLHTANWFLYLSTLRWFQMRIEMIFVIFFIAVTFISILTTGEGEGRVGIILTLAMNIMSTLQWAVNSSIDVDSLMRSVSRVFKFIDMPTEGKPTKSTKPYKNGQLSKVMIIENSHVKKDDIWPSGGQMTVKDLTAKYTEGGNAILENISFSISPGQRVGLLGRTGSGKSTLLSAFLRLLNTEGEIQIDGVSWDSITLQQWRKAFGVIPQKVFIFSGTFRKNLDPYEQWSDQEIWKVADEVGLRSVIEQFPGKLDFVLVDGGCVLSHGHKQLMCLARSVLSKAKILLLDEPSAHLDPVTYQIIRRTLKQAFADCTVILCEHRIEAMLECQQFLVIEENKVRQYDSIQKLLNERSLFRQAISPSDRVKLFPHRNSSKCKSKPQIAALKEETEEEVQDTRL

Row | Compound | inhibition of CFTR after crofelemer pre-treatment [%] | IC50 in absence versus presence of crofelemer | IC50 (CFTR activated by CPT-cAMP, basolateral membrane permeabilized, Cl− gradient, inhibitor in apical solution, read-out: apparent IC50 for inhibition of CFTR Cl− current) [µM]
1 | O=C(CNc1ccc2ccccc2c1)N/N=C/c1cc(Br)c(O)c(Br)c1O [GlyH-101] | ~100 | similar | ~8
2 | CFTRinh-172 | ~100 | similar | 
